# Laboratory results: patent publication US9187464B2, “TRPV4 antagonists” (GlaxoSmithKline Intellectual Property (No. 2) Limited, priority 2011, dated 2015)
# Target: T1, human TRPV4 (Homo sapiens, UniProt Q9HBA0)
# T1 construct: expressed in transfected cells; host or cells: HEK-293-MSR-II cells transduced with 1% BacMam virus
# Test: Ligand-gated assay (Fluo4 calcium, FLIPR; inhibition of agonist-induced activation)
# Assay type: cell-based
# Settings: HEK-293-MSR-II cells transduced with BacMam human TRPV4; agonist at EC80
# Method: TRP channel activation/opening results in an influx of divalent and monovalent cations including calcium. The resulting changes in intracellular calcium were monitored using a calcium selective fluorescent dye Fluo4 (MDS Analytical Technologies). Dye loaded cells were initially exposed to test compound to verify a lack of agonist activity. Cells were subsequently activated by addition of an agonist and inhibition of the agonist-induced activation was recorded. Human embryonic kidney 293 cells stably expressing the macrophage scavenger receptor class II (HEK-293-MSR-II) and transduced with 1% BacMam (J. P. Condreay, S. M. Witherspoon, W. C. Clay and T. A. Kost, Proc Natl Acad Sci 96 (1999), pp. 127-132) virus expressing the human TRPV4 gene were plated at 15000 cells/well in a volume of 50 μL in a 384 well poly-D lysine coated plate. Cells were incubated for 24 hours at 37 degrees and 5% CO2. Media was then aspirated using a Tecan Plate-washer and replaced with 20 μL of dye loading buffer: HBSS, 500 uM Brilliant Black (MDS Analytical Technologies), 2 uM Fluo-4. Dye loaded plates were then incubated in the dark at room temperature for 1-1.5 hours. 10 μL of test compound diluted in HBSS (HBSS with 1.5 mM Calcium Chloride, 1.5 mM Magnesium Chloride and 10 mM HEPES. pH 7.4), +0.01% Chaps was added to the plate, incubated for 10 min at room temperature in the dark and then 10 μL of agonist was added at a final concentration equal to the agonist EC80. Calcium release was measured using the FLIPRtetra (MDS Analytical Technologies) or FLIPR384 (MDS Analytical Technologies).
# IC50 between 0.1-10 nM (+++), >10-50 nM (++), >50-500 nM (+).
# T1 sequence (Q9HBA0 whole entry): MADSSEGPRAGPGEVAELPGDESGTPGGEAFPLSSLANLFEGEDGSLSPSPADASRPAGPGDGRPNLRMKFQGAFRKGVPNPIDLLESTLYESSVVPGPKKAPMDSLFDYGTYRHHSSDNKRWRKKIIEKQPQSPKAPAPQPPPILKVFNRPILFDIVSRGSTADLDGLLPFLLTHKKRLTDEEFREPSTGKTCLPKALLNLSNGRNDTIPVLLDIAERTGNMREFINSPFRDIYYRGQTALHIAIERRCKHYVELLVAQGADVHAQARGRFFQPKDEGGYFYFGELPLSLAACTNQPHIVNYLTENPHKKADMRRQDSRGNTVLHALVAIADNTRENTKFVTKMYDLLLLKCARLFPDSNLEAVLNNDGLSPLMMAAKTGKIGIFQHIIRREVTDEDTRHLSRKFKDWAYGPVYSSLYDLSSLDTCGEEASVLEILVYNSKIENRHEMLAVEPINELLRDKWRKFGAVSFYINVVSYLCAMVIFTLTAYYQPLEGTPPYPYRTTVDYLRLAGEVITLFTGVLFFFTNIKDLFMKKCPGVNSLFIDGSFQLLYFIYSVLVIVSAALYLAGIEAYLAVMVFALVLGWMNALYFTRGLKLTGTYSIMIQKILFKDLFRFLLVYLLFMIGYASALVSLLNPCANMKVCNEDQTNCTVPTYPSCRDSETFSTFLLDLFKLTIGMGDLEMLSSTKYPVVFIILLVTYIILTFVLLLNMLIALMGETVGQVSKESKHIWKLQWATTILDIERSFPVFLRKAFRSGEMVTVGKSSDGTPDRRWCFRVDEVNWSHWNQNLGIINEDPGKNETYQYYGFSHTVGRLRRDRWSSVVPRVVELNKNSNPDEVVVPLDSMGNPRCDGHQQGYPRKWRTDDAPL
row,SMILES,IC50 [µM]
1,"N#Cc1ccc2ncn(C[C@H]3CCC[C@]4(C3)CN(Cc3csc(-c5ccccc5)n3)C(=O)O4)c2c1 [Example 63, 1-({(5S,7S)-2-oxo-3-[(2-phenyl-1,3-thiazol-4-yl)methyl]-1-oxa-3-azaspiro[4.5]dec-7-yl}methyl)-1H-benzimidazole-6-carbonitrile]",0.01 to 0.05
2,"CCOc1ccnc(CN2C[C@@]3(CCC[C@](C)(Cn4cnc5ccc(C#N)cc54)C3)OC2=O)c1 [Example 156, 1-(((5S,7S)-3-((4-ethoxypyridin-2-yl)methyl)-7-methyl-2-oxo-1-oxa-3-azaspiro[4.5]decan-7-yl)methyl)-1H-benzo[d]imidazole-6-carbonitrile]",0.0001 to 0.01
3,"CN(C)c1ccc(N2C[C@@]3(CCC[C@](C)(Cn4cnc5ccc(C#N)cc54)C3)OC2=O)cn1 [Example 19, 1-(((5S,7S)-3-(6-(Dimethylamino)pyridin-3-yl)-7-methyl-2-oxo-1-oxa-3-azaspiro[4.5]decan-7-yl)methyl)-1H-benzo[d]imidazole-6-carbonitrile]",0.0001 to 0.01
4,"Cc1nc(C(F)(F)F)ncc1N1C[C@@]2(CCC[C@H](Cn3cnc4ccc(C#N)cc43)C2)OC1=O [Example 124, 1-(((5S,7S)-3-(4-methyl-2-(trifluoromethyl)pyrimidin-5-yl)-2-oxo-1-oxa-3-azaspiro[4.5]decan-7-yl)methyl)-1H-benzo[d]imidazole-6-carbonitrile]",0.01 to 0.05
5,"COCCOC(C)(C)c1cnc(N2C[C@@]3(CCC[C@](C)(Cn4cnc5ccc(C#N)cc54)C3)OC2=O)cn1 [Example 163, 1-(((5S,7S)-3-(5-(2-(2-methoxyethoxy)propan-2-yl)pyrazin-2-yl)-7-methyl-2-oxo-1-oxa-3-azaspiro[4.5]decan-7-yl)methyl)-1H-benzo[d]imidazole-6-carbonitrile]",0.0001 to 0.01
6,"Cc1ccc(-n2cc(CN3C[C@@]4(CCC[C@H](Cn5cnc6ccc(C#N)cc65)C4)OC3=O)nn2)cc1 [Example 91, 1-[((5S,7S)-3-{[1-(4-methylphenyl)-1H-1,2,3-triazol-4-yl]methyl}-2-oxo-1-oxa-3-azaspiro[4.5]dec-7-yl)methyl]-1H-benzimidazole-6-carbonitrile]",0.05 to 0.5
7,"C[C@]1(Cn2cnc3ccc(C#N)cc32)CCC[C@@]2(CN(c3cnc(C(F)(F)F)cn3)C(=O)O2)C1 [Example 115, 1-(((5S,7S)-7-methyl-2-oxo-3-(5-(trifluoromethyl)pyrazin-2-yl)-1-oxa-3-azaspiro[4.5]decan-7-yl)methyl)-1H-benzo[d]imidazole-6-carbonitrile]",0.0001 to 0.01
8,"C[C@]1(Cn2cnc3ccc(C#N)cc32)CCC[C@@]2(CN(c3ccc(C(F)(F)F)nc3)C(=O)O2)C1 [Example 139, 1-({(5S,7S)-7-methyl-2-oxo-3-[6-(trifluoromethyl)-3-pyridinyl]-1-oxa-3-azaspiro[4.5]dec-7-yl}methyl)-1H-benzimidazole-6-carbonitrile]",0.0001 to 0.01
9,N#Cc1ccc2ncn(C[C@H]3CCC[C@]4(C3)CN(Cc3cn(-c5ccc(Cl)cc5)nn3)C(=O)O4)c2c1 [Example 89],0.01 to 0.05
10,"Cc1cc(N2CCOCC2)ncc1N1C[C@@]2(CCC[C@](C)(Cn3cnc4ccc(C#N)cc43)C2)OC1=O [Example 166, 1-(((5S,7S)-7-methyl-3-(4-methyl-6-morpholinopyridin-3-yl)-2-oxo-1-oxa-3-azaspiro[4.5]decan-7-yl)methyl)-1H-benzo[d]imidazole-6-carbonitrile]",0.0001 to 0.01
11,"CCn1ncc(N2C[C@@]3(CCC[C@](C)(Cn4cnc5ccc(C#N)cc54)C3)OC2=O)c1C [Example 16, 1-(((5S,7S)-3-(1-Ethyl-5-methyl-1H-pyrazol-4-yl)-7-methyl-2-oxo-1-oxa-3-azaspiro[4.5]decan-7-yl)methyl)-1H-benzo[d]imidazole-6-carbonitrile]",0.0001 to 0.01
12,"Cc1c(C(C)(C)C)noc1N1C[C@@]2(CCC[C@](C)(Cn3cnc4ccc(C#N)cc43)C2)OC1=O [Example 41, 1-(((5S,7S)-3-(3-(tert-butyl)-4-methylisoxazol-5-yl)-7-methyl-2-oxo-1-oxa-3-azaspiro[4.5]decan-7-yl)methyl)-1H-benzo[d]imidazole-6-carbonitrile]",0.0001 to 0.01
13,"CN(C)c1cnc(N2C[C@@]3(CCC[C@](C)(Cn4cnc5ccc(C#N)cc54)C3)OC2=O)cn1 [Example 150, 1-(((5S,7S)-3-(5-(dimethylamino)pyrazin-2-yl)-7-methyl-2-oxo-1-oxa-3-azaspiro[4.5]decan-7-yl)methyl)-1H-benzo[d]imidazole-6-carbonitrile]",0.05 to 0.5
14,"Cc1noc(N2C[C@@]3(CCC[C@H](Cn4cnc5ccc(C#N)cc54)C3)OC2=O)c1C [Example 58, 1-(((5S,7S)-3-(3,4-dimethylisoxazol-5-yl)-2-oxo-1-oxa-3-azaspiro[4.5]decan-7-yl)methyl)-1H-benzo[d]imidazole-6-carbonitrile]",0.05 to 0.5
15,"CC(C)(C)c1noc(N2C[C@@]3(CCC[C@](C)(Cn4cnc5ccc(C#N)cc54)C3)OC2=O)c1F [Example 44, 1-(((5S,7S)-3-(3-(tert-butyl)-4-fluoroisoxazol-5-yl)-7-methyl-2-oxo-1-oxa-3-azaspiro[4.5]decan-7-yl)methyl)-1H-benzo[d]imidazole-6-carbonitrile]",0.0001 to 0.01
16,"CC(C)(CN1C[C@@]2(CCC[C@H](Cn3cnc4ccc(C#N)cc43)C2)OC1=O)c1nc(-c2ccccc2)no1 [Example 75, 1-({(5S,7S)-3-[2-methyl-2-(3-phenyl-1,2,4-oxadiazol-5-yl)propyl]-2-oxo-1-oxa-3-azaspiro[4.5]dec-7-yl}methyl)-1H-benzimidazole-6-carbonitrile]",0.0001 to 0.01
17,"CCc1cc(N2C[C@@]3(CCC[C@](C)(Cn4cnc5ccc(C#N)cc54)C3)OC2=O)on1 [Example 33, 1-{[(5S,7S)-3-(3-ethyl-5-isoxazolyl)-7-methyl-2-oxo-1-oxa-3-azaspiro[4.5]dec-7-yl]methyl}-1H-benzimidazole-6-carbonitrile]",0.01 to 0.05
18,"CC(C)(OCCOP(C)(C)=O)c1cnc(N2C[C@@]3(CCC[C@](C)(Cn4cnc5ccc(C#N)cc54)C3)OC2=O)cn1 [Example 164, 2-((2-(5-((5S,7S)-7-((6-cyano-1H-benzo[d]imidazol-1-yl)methyl)-7-methyl-2-oxo-1-oxa-3-azaspiro[4.5]decan-3-yl)pyrazin-2-yl)propan-2-yl)oxy)ethyl dimethylphosphinate]",0.01 to 0.05
19,"Cn1ccc(-c2cc(N3C[C@@]4(CCC[C@](C)(Cn5cnc6ccc(C#N)cc65)C4)OC3=O)on2)n1 [Example 51, 1-(((5S,7S)-7-methyl-3-(3-(1-methyl-1H-pyrazol-3-yl)isoxazol-5-yl)-2-oxo-1-oxa-3-azaspiro[4.5]decan-7-yl)methyl)-1H-benzo[d]imidazole-6-carbonitrile]",0.01 to 0.05
20,"Cn1cc(-c2cccc(CN3C[C@@]4(CCC[C@](C)(Cn5cnc6ccc(C#N)cc65)C4)OC3=O)n2)cn1 [Example 161, 1-(((5S,7S)-7-methyl-3-((6-(1-methyl-1H-pyrazol-4-yl)pyridin-2-yl)methyl)-2-oxo-1-oxa-3-azaspiro[4.5]decan-7-yl)methyl)-1H-benzo[d]imidazole-6-carbonitrile]",0.0001 to 0.01
21,"COc1ncc(N2C[C@@]3(CCC[C@](C)(Cn4cnc5ccc(C#N)cc54)C3)OC2=O)cc1C [Example 132, 1-(((5S,7S)-3-(6-methoxy-5-methylpyridin-3-yl)-7-methyl-2-oxo-1-oxa-3-azaspiro[4.5]decan-7-yl)methyl)-1H-benzo[d]imidazole-6-carbonitrile]",0.0001 to 0.01
22,"Cc1nc(C(F)(F)F)cnc1N1C[C@@]2(CCC[C@H](Cn3cnc4ccc(C#N)cc43)C2)OC1=O [Example 131, 1-(((5S,7S)-3-(3-methyl-5-(trifluoromethyl)pyrazin-2-yl)-2-oxo-1-oxa-3-azaspiro[4.5]decan-7-yl)methyl)-1H-benzo[d]imidazole-6-carbonitrile]",0.05 to 0.5
23,"CC(C)(CN1C[C@@]2(CCC[C@H](Cn3cnc4ccc(C#N)cc43)C2)OC1=O)c1nc(-c2cncnc2)no1 [Example 78, 1-[((5S,7S)-3-{2-methyl-2-[3-(5-pyrimidinyl)-1,2,4-oxadiazol-5-yl]propyl}-2-oxo-1-oxa-3-azaspiro[4.5]dec-7-yl)methyl]-1H-benzimidazole-6-carbonitrile]",0.0001 to 0.01
24,"CC(C)(C)c1noc(N2C[C@@]3(CCC[C@](C)(Cn4cnc5ccc(C#N)cc54)C3)OC2=O)c1Br [Example 108, 1-({(5S,7S)-3-[4-bromo-3-(1,1-dimethylethyl)-5-isoxazolyl]-7-methyl-2-oxo-1-oxa-3-azaspiro[4.5]dec-7-yl}methyl)-1H-benzimidazole-6-carbonitrile]",0.0001 to 0.01
25,"N#Cc1ccc2ccn(C[C@H]3CCC[C@]4(C3)CN(Cc3csc5ccc(Cl)cc35)C(=O)O4)c2c1 (stereo in doubt) [Example 59, 1-({3-[(5-chloro-1-benzothien-3-yl)methyl]-2-oxo-1-oxa-3-azaspiro[4.5]dec-7-yl}methyl)-1H-indole-6-carbonitrile]",0.05 to 0.5
